The target of the test is T1, cellular PARG (Homo sapiens, UniProt Q86W56).
T1 construct: endogenous in cells; host or cells: HeLa
Kind of test: Nuclear PAR accumulation assay (immunofluorescence high-content imaging, MMS-treated HeLa cells). The settings on record: 1 hour compound then MMS 50 μg/mL for an additional hour. The test is classed as cell-based. In short, it runs like this:
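HeLa cells pretreated with compound for 1 h at 37° C, then given 50 μg/mL MMS for another hour. After methanol fixation, PAR was immunostained with DAPI nuclear counterstain; per-nucleus intensity and percent PAR-positive cells were imaged at 20× (≥1,000 cells/well). IC50 from four-parameter logistic fit.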

Each structure is given as a SMILES string.

T1 sequence (Q86W56 whole entry): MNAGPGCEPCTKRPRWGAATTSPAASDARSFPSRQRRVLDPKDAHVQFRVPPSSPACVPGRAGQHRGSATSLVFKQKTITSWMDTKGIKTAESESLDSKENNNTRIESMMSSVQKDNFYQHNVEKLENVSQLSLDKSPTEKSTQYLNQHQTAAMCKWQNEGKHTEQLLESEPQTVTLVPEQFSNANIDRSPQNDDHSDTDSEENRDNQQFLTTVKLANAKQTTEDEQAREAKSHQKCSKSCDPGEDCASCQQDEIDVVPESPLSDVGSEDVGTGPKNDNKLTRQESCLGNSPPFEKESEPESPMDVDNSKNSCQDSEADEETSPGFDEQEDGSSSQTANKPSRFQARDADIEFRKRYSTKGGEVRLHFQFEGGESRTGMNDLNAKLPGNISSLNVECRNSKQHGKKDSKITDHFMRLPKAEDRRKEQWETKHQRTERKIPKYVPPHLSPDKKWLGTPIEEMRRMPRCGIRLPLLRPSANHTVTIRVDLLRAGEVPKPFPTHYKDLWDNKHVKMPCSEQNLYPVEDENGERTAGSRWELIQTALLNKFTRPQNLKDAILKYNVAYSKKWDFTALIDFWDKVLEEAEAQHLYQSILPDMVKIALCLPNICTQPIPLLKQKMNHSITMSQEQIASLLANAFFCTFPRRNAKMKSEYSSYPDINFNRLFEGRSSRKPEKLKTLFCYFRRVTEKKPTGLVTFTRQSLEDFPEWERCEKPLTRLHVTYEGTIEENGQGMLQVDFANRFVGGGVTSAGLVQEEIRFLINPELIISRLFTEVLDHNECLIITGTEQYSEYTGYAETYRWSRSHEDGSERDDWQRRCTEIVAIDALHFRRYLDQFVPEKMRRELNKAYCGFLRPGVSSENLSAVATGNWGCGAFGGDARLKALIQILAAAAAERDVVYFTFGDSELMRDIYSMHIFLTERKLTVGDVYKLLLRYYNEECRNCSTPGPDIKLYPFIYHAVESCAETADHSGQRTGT

`C[C@@H]1CN=C2N(CCCO)C(=O)c3cc(S(=O)(=O)NC4(C)CC4)ccc3N21` [Example 64, (R)-4-(3-hydroxypropyl)-1-methyl-N-(1-methylcyclopropyl)-5-oxo-1,2,4,5-tetrahydroimidazo[1,2-a]quinazoline-7-sulfonamide]: the IC50 (in general, the point on the concentration scale where inhibition reaches its midpoint) fell in the range of 1 to 10 µM.
In the case of `Cn1cc(CN2C(=O)c3cc(S(=O)(=O)NC4(C)CC4)ccc3N3C2=NC[C@H]3C#Cc2ccn(C)n2)cn1` [Example 65, (R)-1-((1-methyl-1H-pyrazol-3-yl)ethynyl)-4-((1-methyl-1H-pyrazol-4-yl)methyl)-N-(1-methylcyclopropyl)-5-oxo-1,2,4,5-tetrahydroimidazo[1,2-a]quinazoline-7-sulfonamide] it was below 0.1 µM; in that of `Cn1cc(CN2C(=O)c3cc(S(=O)(=O)NC4(C)CC4)ccc3N3C2=NC[C@H]3C#Cc2ncn(C)n2)cn1` [Example 66, (R)-1-((1-methyl-1H-1,2,4-triazol-3-yl)ethynyl)-4-((1-methyl-1H-pyrazol-4-yl)methyl)-N-(1-methylcyclopropyl)-5-oxo-1,2,4,5-tetrahydroimidazo[1,2-a]quinazoline-7-sulfonamide], below 0.1 µM; in that of `Cn1cc(CN2C(=O)c3cc(S(=O)(=O)NC4(C)CC4)ccc3N3C2=NC[C@H]3C#Cc2ccccn2)cn1` [Example 67, (R)-4-((1-methyl-1H-pyrazol-4-yl)methyl)-N-(1-methylcyclopropyl)-5-oxo-1-(pyridin-2-ylethynyl)-1,2,4,5-tetrahydroimidazo[1,2-a]quinazoline-7-sulfonamide], below 0.1 µM.
In the case of `Cn1cc(CN2C(=O)c3cc(S(=O)(=O)NC4(C)CC4)ccc3N3C2=NC[C@H]3C#Cc2ncccn2)cn1` [Example 68, (R)-4-((1-methyl-1H-pyrazol-4-yl)methyl)-N-(1-methylcyclopropyl)-5-oxo-1-(pyrimidin-2-ylethynyl)-1,2,4,5-tetrahydroimidazo[1,2-a]quinazoline-7-sulfonamide] it was below 0.1 µM; in that of `Cn1cc(CN2C(=O)c3cc(S(=O)(=O)NC4(C)CC4)ccc3N3C2=NC[C@H]3C#CC(C)(C)O)cn1` [Example 69, (R)-1-(3-hydroxy-3-methylbut-1-yn-1-yl)-4-((1-methyl-1H-pyrazol-4-yl)methyl)-N-(1-methylcyclopropyl)-5-oxo-1,2,4,5-tetrahydroimidazo[1,2-a]quinazoline-7-sulfonamide], 0.1 to 1 µM; in that of `CN1CCC([C@@H]2CN=C3N(Cc4cnn(C)c4)C(=O)c4cc(S(=O)(=O)NC5(C)CC5)ccc4N32)CC1` [Example 70, (R)-4-((1-methyl-1H-pyrazol-4-yl)methyl)-N-(1-methylcyclopropyl)-1-(1-methylpiperidin-4-yl)-5-oxo-1,2,4,5-tetrahydroimidazo[1,2-a]quinazoline-7-sulfonamide], 1 to 10 µM.
In the case of `C[C@@H]1CN=C2N(Cc3cnn(C)c3)C(=O)c3cc(S(=O)(=O)NC4(C)CC4)cc(N4CC[C@@H](N)C4)c3N21` [Example 71, (R)-9-((R)-3-aminopyrrolidin-1-yl)-1-methyl-4-((1-methyl-1H-pyrazol-4-yl)methyl)-N-(1-methylcyclopropyl)-5-oxo-1,2,4,5-tetrahydroimidazo[1,2-a]quinazoline-7-sulfonamide] it was 0.1 to 1 µM.
Molecule `C#C[C@@H]1CN=C2N(Cc3cnn(C)c3)C(=O)c3cc(S(=O)(=O)NC4(C)CC4)cc(Br)c3N21` [Example 72, (R)-9-bromo-1-ethynyl-4-((1-methyl-1H-pyrazol-4-yl)methyl)-N-(1-methylcyclopropyl)-5-oxo-1,2,4,5-tetrahydroimidazo[1,2-a]quinazoline-7-sulfonamide] returned an IC50 below 0.1 µM.
The same measure for `C[C@@H]1CN=C2N(Cc3cnn(C)c3)C(=O)c3cc(S(=O)(=O)NC4(C)COC4)ccc3N21` [Example 73, (R)-1-methyl-4-((1-methyl-1H-pyrazol-4-yl)methyl)-N-(3-methyloxetan-3-yl)-5-oxo-1,2,4,5-tetrahydroimidazo[1,2-a]quinazoline-7-sulfonamide]: 0.1 to 1 µM.

Values taken from patent US20260285875A1, “INHIBITORS OF PARG” (858 Therapeutics, Inc., priority 2023, published 2026).
